Measured values as given in patent US7258862B2, “Mushroom extracts having anticancer activity” (Gavish-Galilee Bio Aplications Ltd., priority 2004, dated 2007).
“Also recorded” adds a separate entry of the source.

Experiments:
Assay type in all cases: cell-based, human
PARP = PARP cleavage Western blot in K562 cells; conditions: 500 μg/ml and 250 μg/ml, 48 hours, Western blot (FIGS. 2A-2B)
K562 cells [1] = assay: Apostain ELISA assay (DNA condensation, apoptosis) in K562 cells; conditions: 48 h; for Relative Apostain Value: K562, solvent-treated sample = 1
p210^Bcr-Abl = assay: Western blot of p210 Bcr-Abl expression in K562 cells; conditions: extracts 500 μg/ml and 250 μg/ml, AG957 10 μM and 20 μM, 48 hours, Western blot (FIGS. 3A-3B)
K562 cells [2] = assay: Erythroid differentiation: hemoglobin production in K562 cells

Row | SMILES | Cleavage of PARP in K562 cells (in words) (PARP) | Relative Apostain Value (K562 cells [1]; 10 μM) | Relative Apostain Value (K562 cells [1]; 20 μM) | Induction of apoptosis / increase in DNA condensation in K562 cells (in words) (K562 cells [1]; extracts 250 and 500 μg/ml, AG957 10 μM) | Effect on p210^Bcr-Abl expression levels in K562 cells (in words) (p210^Bcr-Abl) | Relative Hemoglobin (K562 cells [2]; 1 mM, day 5, K562, solvent-treated sample = 1.0) | Induction of hemoglobin production / erythroid differentiation in K562 cells (in words) (K562 cells [2]; day 5 post-treatment, versus DMSO-treated cells)
1 | COC(=O)c1ccc(NCc2cc(O)ccc2O)cc1 [AG957] | significantly activates PARP cleavage; also recorded: significant cleavage of PARP | 6.2 | 3.9 | significantly induced an increase in DNA condensation | reduction in Bcr-Abl protein levels | – | –
2 | CCCC(=O)O [Butyric Acid, butyric acid] | – | – | – | – | – | 9.4 | active in inducing hemoglobin expression
